# Results as given in patent US20110136839A1, “COMBINATION OF TWO ANALGESIC CHEMICALS” (priority 2009, published 2011).
# “Also recorded” adds a separate entry of the source.
# How the values were obtained:
# [1] = test system: carrageenan-evoked hyperalgesia; test: Carrageenan model of inflammation, thermal hyperalgesia (paw withdrawal latency); type: in vivo; details: rat; for reversal of the hypoalgesia by naloxone (opioid receptor antagonist): drug i.pl. at 1 hour, naloxone chloride or naloxone methiodide s.c. at 24 hours after carrageenan; for effect on carrageenan-evoked thermal hyperalgesia (paw withdrawal latency): intraplantar (local) injection in the inflamed paw 1 hour after carrageenan
# Experimental: Rats received a subcutaneous injection of carrageenan (2% in saline, 100 μl) in the right hindpaw (intraplantar injection). Drug or vehicle were administered intraplantarly (i.pl., 50 μl) 1 hour after carrageenan injection and behavioral testing was performed at various time points. Nociceptive threshold responding to heat was determined as described before (Williams et al., 1990; Wisden et al., 1990: Jiang et al., 2006). Briefly, rat was placed in a device that held the body without restraining the head and legs. Noxious heat stimulation was carried out by immersing the hindpaw up to the ankle joint into a slowly stirred water bath at 47.5° C. while holding the animal with the device. […] Paw withdrawal latency for any test time point was measured twice at 3-min intervals and the mean values were calculated. Baseline latency was measured 10 min before drug or vehicle administration.
# Effects of ketanserin on carrageenan-evoked hyperalgesia are illustrated in FIG. 1. Paw withdrawal latencies in seconds were measured in plantar test at the various time points. Data were normalized as percentage of pretreatment baseline (100%) and expressed as the mean ±SEM (standard error of mean).
# Paw withdrawal latencies in seconds were determined in plantar test at the various time points. Data were normalized as percentage of pretreatment baseline (100%) and expressed as the mean ±SEM. Carrageenan and ketanserin (20 μg) were given i.pl. into unilateral hindpaw at 0 and 1 hour, respectively.
# Paw withdrawal latencies in seconds were examined at the various time points. Data were normalized as percentage of pretreatment baseline (100%) and expressed as the mean ±SEM.
# Carrageenan and […] (30 μg) were given i.pl. into unilateral hindpaw at 0 and 1 hour, respectively. Then naloxone chloride (5 mg/ml/kg) or naloxone methiodide (10 mg/ml/kg) or saline (1 ml/kg) was injected s.c. (subcutaneous injection) at 24hours after carrageenan. Paw withdrawal latencies in seconds were measured at the various time points.
# Carrageenan (2%, 100 μl) was administered i.pl. at 0 hour and saline (50 μl, i.pl.) or ketanserin (2 μg, i.pl.)+WAY100635 (3 μg, i.pl.) at 1 hour. The results are illustrated in FIG. 5. Paw withdrawal latencies in seconds were examined at the various time points.
# Carrageenan model—See those described before.
# [2] = test system: carrageenan-evoked hyperalgesia; test: as above; type: in vivo; details: rat; for effect on thermal hyperalgesia in carrageenan model (paw withdrawal latency): subcutaneous (systemic) injection 1 hour after carrageenan; for effect on inflammatory hyperalgesia at higher dose (FIG. 7D): subcutaneous injection at 1 hour, doses higher than those in FIG. 7C
# [3] = Animal study of blood pressure and heart rate; type: in vivo; details: subcutaneous injection at 0.5 mg/kg
# neuropathic pain (SNL) = test: Neuropathic pain model (spinal nerve ligation), thermal threshold of the hindpaw; type: in vivo, rat
# Experimental: PWL responding to heat stimulus ipsilaterally was measured.
# Paw withdrawal latency was measured.
Compound,reversal of the hypoalgesia by naloxone (opioid receptor antagonist) [1],effect on carrageenan-evoked thermal hyperalgesia (paw withdrawal latency) [1],effect on thermal hyperalgesia in carrageenan model (paw withdrawal latency) [2],effect on inflammatory hyperalgesia at higher dose (FIG. 7D) [2],blood pressure [3],heart rate [3],reversal of the hypoalgesia by naloxone (opioid receptor antagonist) ([1]; listed as Ketanserin),"tolerance (neuropathic pain (SNL); rat neuropathic pain model, thermal, s.c. injection)","thermal nociceptive threshold in Chung's model of neuropathic pain (paw withdrawal latency) (neuropathic pain (SNL); rat, s.c. starting at day 4 after spinal nerve ligation)"
COc1ccccc1N1CCN(CCN(C(=O)C2CCCCC2)c2ccccn2)CC1 [WAY100635],mediated by opioid analgesia mechanism,dose-dependently produces hypoalgesia,–,–,–,–,–,–,–
CC(C)NCC(O)COc1cccc2ccccc12 (stereo not drawn) [propranolol],abolished by i.p. naloxone,prolonging in paw withdrawal latency,produces significant inhibition on the nociceptive threshold,exerted stronger effect,does not alter,does not alter,–,–,–
O=C(c1ccc(F)cc1)C1CCN(CCn2c(=O)[nH]c3ccccc3c2=O)CC1 [ketanserin],abolished by i.p. naloxone,dose-dependently produces hypoalgesia; also recorded: prolonging in paw withdrawal latency,produces significant inhibition on the nociceptive threshold,exerted stronger effect,does not alter,does not alter,mediated by opioid analgesia mechanism,without tolerance,dose-dependently inhibits
COc1cc2nc(N3CCN(C(=O)c4ccco4)CC3)nc(N)c2cc1OC [prazosin],–,failed to alter the carrageenan-evoked response,–,–,–,–,–,–,–
